# Calls of active or inactive are those of the source. The rule behind the calls is not given here.
# Key:
# CREB-binding protein = CREB-binding protein (Homo sapiens, UniProt Q92793); experiment: Inhibition of CBP (unknown origin) preincubated for 15 mins followed by addition of substrate [3H] Ac-CoA and measured after 60 mins by liquid scintillation counting assay
# [1] = molecular target: T1, Histone acetyltransferase p300 (Homo sapiens, UniProt Q09472); experiment: Inhibition of p300 (unknown origin) preincubated for 15 mins followed by addition of substrate [3H] Ac-CoA and measured after 60 mins by liquid scintillation counting assay
# [2] = Stability in mouse liver microsomes assessed as intrinsic clearance; type: ADME, Microsome
# OVCAR-3 [3] = experiment: Antitumour activity against human OVCAR-3 cells xenografted in Balb/c mouse assessed as reduction of tumor volume at 20 mg/kg, ip qd measured every 3 to 4 days for 2 weeks; type: functional, organism-based
# [4] = Tmax in Sprague-Dawley rat at 3 mg/kg, po; type: ADME, organism-based; details: in vivo
# [5] = molecular target: Histone acetyltransferase KAT2A (Homo sapiens) (UniProt Q92830); experiment: Inhibition of GCN5 in human OVCAR-3 cells assessed as reduction of H3K9ac levels at 0.25 to 4 uM after 24 hrs by Western blot assay; type: cell-based; details: dose 0.25-4 µM
# [6] = Stability in human liver microsomes assessed as intrinsic clearance; type: ADME, Microsome
# [7] = molecular target: CREB-binding protein/Histone acetyltransferase p300 (Homo sapiens) (UniProt Q09472+Q92793); experiment: Inhibition of p300/CBP in human OVCAR-3 cells assessed as reduction of C-myc levels at 0.25 uM measured after 2 days by Western blot assay relative to control; type: cell-based; details: time 2.0 day
# A2780 = experiment: Antiproliferative activity against human A2780 cells assessed as inhibition of cell proliferation measured after 120 hrs by Cell-titre glo assay; type: functional, cell-based; details: A2780, 120 h
# OVCAR-3 [8] = experiment: Antitumour activity against human OVCAR-3 cells xenografted in Balb/c mouse assessed as reduction of tumor volume at 30 mg/kg, ip qd measured every 3 to 4 days for 2 weeks (reference value: 2838.39 +/- 1392.47 mm3); type: functional
# [9] = Toxicity in Balb/c nude mouse xenografted with human OVCAR-3 cells assessed as body weight loss at 30 mg/kg, ip measured after 24 days; type: organism-based; details: in vivo, 576 h, time 24 day
# [10] = molecular target: T1, Histone acetyltransferase p300; experiment: Inhibition of p300 in human OVCAR-3 cells assessed as reduction of H3K27ac levels measured after 24 hrs by Western blot assay; type: cell-based; details: dose 0.25-4 µM
# OVCAR-3 [11] = experiment: Antiproliferative activity against human OVCAR-3 cells assessed as inhibition of cell proliferation measured after 120 hrs by Cell-titre glo assay; type: functional, cell-based; details: OVCAR-3, 120 h
# SK-OV-3 = experiment: Antiproliferative activity against human SK-OV-3 cells assessed as inhibition of cell proliferation measured after 120 hrs by Cell-titre glo assay; type: functional, cell-based
# TOV21G = experiment: Antiproliferative activity against human TOV-21G cells assessed as inhibition of cell proliferation measured after 120 hrs by Cell-titre glo assay; type: functional, cell-based
# [12] = molecular target: T1, Histone acetyltransferase p300; experiment: Inhibition of p300 in human OVCAR-3 cells assessed as reduction of H3K18ac levels measured after 24 hrs by Western blot assay; type: cell-based; details: dose 0.25-4 µM
# [13] = molecular target: T1, Histone acetyltransferase p300; experiment: Inhibition of p300 (unknown origin)
# [14] = Half life in Sprague-Dawley rat at 3 mg/kg, po; type: ADME, organism-based; details: in vivo
# [15] = Toxicity in Balb/c nude mouse xenografted with human OVCAR-3 cells assessed as body weight loss at 20 to 30 mg/kg, ip qd measured every 3 to 4 days for 2 weeks; type: organism-based; details: in vivo, 336 h, dose 20-30 mg/kg
# [16] = Cmax in Sprague-Dawley rat at 3 mg/kg, po; type: ADME, organism-based; design: route oral, dose 3 mg/kg; details: in vivo
# [17] = AUC(last) in Sprague-Dawley rat at 3 mg/kg, po; type: ADME, organism-based; design: time 0 - last, route oral, dose 3 mg/kg; details: in vivo
# HEK293 = experiment: Antiproliferative activity against human 293 cells assessed as inhibition of cell proliferation measured after 120 hrs by Cell-titre glo assay; type: cell-based; details: hek293, 120 h
# OVCAR-3 [18] = experiment: Antitumour activity against human OVCAR-3 cells xenografted in Balb/c mouse assessed as reduction of tumor volume at 100 mg/kg, ip qd measured every 3 to 4 days for 2 weeks; type: functional, organism-based
# [19] = Stability in rat liver microsomes assessed as intrinsic clearance; type: ADME, Microsome
# T1 sequence (Q09472 whole entry): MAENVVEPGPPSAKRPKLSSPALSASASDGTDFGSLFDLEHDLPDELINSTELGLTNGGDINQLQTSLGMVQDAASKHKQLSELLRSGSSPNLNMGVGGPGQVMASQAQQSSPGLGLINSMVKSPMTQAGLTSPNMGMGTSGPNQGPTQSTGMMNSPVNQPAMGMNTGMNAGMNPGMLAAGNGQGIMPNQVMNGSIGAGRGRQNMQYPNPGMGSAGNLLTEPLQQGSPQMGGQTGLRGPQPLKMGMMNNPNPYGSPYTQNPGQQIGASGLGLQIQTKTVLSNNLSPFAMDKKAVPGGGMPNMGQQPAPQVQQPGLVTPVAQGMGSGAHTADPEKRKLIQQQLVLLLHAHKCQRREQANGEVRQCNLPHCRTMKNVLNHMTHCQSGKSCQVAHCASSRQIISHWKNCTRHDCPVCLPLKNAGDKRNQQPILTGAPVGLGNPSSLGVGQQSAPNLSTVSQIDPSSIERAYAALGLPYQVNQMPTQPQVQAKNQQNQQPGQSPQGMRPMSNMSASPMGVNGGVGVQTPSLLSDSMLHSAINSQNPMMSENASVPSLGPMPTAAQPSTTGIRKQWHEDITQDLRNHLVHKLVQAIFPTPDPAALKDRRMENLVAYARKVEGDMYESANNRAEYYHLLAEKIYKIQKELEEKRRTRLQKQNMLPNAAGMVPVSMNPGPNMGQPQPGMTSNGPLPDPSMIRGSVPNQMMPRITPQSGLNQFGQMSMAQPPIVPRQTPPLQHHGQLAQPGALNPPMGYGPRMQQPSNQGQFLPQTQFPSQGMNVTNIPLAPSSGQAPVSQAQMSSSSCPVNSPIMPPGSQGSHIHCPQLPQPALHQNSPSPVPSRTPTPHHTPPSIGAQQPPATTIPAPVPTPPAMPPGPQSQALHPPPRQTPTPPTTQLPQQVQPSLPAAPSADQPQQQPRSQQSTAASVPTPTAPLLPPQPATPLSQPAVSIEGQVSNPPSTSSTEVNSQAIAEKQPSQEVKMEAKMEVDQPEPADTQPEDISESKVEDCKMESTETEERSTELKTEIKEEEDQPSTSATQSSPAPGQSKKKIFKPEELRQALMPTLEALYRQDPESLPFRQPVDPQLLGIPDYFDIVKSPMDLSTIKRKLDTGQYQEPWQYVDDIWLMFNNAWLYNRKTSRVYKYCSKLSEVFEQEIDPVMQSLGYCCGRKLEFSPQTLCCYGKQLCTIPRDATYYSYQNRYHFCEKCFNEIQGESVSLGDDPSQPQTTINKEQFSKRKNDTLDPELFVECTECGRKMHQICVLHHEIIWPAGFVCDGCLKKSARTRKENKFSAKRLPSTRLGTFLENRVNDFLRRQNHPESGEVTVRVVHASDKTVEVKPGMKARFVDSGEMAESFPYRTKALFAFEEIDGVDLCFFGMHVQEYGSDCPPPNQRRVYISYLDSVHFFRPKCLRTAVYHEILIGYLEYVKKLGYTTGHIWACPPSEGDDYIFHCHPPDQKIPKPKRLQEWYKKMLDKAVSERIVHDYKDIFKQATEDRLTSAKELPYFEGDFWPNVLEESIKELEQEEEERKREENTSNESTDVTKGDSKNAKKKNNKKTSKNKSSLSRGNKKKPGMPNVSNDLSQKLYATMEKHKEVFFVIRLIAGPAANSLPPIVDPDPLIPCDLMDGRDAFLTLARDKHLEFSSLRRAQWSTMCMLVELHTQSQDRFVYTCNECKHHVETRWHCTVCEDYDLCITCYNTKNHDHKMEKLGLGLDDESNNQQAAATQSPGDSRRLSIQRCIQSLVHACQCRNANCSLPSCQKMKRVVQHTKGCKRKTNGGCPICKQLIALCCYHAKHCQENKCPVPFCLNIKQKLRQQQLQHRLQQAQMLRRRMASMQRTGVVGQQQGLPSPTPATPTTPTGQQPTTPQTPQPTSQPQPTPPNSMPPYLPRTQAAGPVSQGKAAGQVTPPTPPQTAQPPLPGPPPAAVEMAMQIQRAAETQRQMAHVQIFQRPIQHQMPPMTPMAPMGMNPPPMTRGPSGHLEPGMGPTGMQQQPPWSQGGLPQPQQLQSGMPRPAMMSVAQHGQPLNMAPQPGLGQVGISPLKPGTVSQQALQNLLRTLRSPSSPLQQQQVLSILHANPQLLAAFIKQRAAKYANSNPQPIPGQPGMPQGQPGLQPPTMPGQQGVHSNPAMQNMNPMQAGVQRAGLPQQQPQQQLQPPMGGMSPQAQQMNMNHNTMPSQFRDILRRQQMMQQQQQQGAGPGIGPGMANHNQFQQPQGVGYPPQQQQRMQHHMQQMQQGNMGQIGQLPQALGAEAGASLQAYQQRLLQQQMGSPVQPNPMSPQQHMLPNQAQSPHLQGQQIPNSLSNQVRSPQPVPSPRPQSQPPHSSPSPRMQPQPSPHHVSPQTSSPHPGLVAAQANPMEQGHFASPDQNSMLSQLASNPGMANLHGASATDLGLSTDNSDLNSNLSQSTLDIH
# Sequence of CREB-binding protein (Q92793 whole entry): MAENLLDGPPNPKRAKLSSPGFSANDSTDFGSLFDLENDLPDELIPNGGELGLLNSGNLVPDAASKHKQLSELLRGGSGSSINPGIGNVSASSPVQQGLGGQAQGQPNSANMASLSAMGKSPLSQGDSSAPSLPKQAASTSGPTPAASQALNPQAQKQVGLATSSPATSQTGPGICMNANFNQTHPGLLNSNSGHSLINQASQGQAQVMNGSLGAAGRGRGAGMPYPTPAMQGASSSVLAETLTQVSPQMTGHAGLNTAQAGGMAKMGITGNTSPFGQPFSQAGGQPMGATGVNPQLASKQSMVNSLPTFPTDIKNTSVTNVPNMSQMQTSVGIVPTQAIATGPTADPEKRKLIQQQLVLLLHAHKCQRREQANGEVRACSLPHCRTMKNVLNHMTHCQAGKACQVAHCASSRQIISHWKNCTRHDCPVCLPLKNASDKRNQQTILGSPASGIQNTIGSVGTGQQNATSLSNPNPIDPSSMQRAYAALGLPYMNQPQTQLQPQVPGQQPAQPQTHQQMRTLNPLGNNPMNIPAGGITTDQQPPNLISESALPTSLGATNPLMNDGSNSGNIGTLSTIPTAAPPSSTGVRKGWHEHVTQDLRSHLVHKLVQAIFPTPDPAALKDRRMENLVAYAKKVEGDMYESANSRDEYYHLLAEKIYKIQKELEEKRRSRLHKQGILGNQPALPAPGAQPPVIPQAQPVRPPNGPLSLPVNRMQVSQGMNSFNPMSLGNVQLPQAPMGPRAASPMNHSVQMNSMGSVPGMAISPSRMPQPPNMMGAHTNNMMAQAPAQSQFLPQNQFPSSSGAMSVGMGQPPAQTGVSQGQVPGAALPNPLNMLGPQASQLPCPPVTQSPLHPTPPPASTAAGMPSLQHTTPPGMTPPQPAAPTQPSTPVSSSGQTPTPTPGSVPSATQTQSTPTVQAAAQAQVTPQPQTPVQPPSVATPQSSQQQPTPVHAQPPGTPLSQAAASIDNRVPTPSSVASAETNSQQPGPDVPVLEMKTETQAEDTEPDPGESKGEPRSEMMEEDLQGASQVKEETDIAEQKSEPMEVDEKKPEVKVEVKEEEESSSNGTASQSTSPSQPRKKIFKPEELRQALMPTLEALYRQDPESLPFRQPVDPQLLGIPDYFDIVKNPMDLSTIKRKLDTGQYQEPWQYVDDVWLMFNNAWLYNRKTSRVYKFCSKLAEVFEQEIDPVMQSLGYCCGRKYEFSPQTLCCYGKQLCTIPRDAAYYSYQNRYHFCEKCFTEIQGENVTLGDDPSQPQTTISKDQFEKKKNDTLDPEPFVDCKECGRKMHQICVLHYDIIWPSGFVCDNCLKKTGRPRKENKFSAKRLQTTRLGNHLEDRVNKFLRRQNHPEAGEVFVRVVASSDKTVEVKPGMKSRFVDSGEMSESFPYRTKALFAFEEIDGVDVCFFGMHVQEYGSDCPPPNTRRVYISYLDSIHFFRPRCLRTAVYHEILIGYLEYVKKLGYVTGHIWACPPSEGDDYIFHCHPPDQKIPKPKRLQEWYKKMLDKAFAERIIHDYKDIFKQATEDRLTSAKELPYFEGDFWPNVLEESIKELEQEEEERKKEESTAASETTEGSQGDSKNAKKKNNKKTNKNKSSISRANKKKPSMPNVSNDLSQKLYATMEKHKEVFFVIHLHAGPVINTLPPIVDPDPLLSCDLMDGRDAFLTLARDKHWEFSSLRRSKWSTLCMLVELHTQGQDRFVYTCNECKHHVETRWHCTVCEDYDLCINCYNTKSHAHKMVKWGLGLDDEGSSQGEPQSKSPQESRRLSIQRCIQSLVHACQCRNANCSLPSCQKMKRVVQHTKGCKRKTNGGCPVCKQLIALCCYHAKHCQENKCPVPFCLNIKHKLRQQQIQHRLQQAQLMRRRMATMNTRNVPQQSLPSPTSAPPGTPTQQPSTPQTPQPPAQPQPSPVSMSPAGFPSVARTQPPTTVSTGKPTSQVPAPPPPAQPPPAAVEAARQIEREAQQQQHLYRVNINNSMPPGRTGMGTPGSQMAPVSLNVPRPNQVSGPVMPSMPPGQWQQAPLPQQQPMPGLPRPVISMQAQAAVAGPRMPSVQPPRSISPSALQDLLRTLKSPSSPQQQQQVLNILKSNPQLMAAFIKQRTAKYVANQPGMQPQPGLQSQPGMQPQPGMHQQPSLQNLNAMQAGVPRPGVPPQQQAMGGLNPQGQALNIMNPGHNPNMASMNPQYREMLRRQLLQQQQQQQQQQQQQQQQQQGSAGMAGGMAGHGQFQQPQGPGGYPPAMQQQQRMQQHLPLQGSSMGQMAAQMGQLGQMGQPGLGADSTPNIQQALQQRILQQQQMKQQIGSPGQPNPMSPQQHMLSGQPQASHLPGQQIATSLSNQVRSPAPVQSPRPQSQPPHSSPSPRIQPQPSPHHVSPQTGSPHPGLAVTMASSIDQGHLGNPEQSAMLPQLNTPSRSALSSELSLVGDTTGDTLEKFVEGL
# Sequence of CREB-binding protein/Histone acetyltransferase p300 (Homo sapiens) (Q09472 whole entry, looked up): as the sequence (Q09472 whole entry) above
# Sequence of CREB-binding protein/Histone acetyltransferase p300 (Homo sapiens) (Q92793 whole entry, looked up): as the sequence (Q92793 whole entry) above
smiles,measurement,setting,value
CNC(=O)Nc1ccc2c(c1)OCC[C@@]21OC(=O)N(CC(=O)N2Cc3ccc(F)cc3CC[C@H]2C2CC2)C1=O,IC50,CREB-binding protein,22 nM
same,IC50,[1],8.6 nM
CNC(=O)Nc1ccc2c(c1)CC[C@@]21OC(=O)N(CC(=O)N2Cc3ncccc3CC[C@H]2C2CC2)C1=O,IC50,CREB-binding protein,30 nM
same,IC50,[1],8.6 nM
CNC(=O)Nc1ccc2c(c1)CC[C@@]21OC(=O)N(CC(=O)N2Cc3ccncc3CC[C@H]2C2CC2)C1=O,IC50,CREB-binding protein,28 nM
same,IC50,[1],9.8 nM
CNC(=O)Nc1ccc2c(c1)CC[C@@]21OC(=O)N(CC(=O)N2Cc3cc(F)ccc3OC[C@H]2C2CC2)C1=O,CLH,[2],48 mL/min/g
same,Activity,OVCAR-3 [3],Active
same,Tmax,[4],1 h
same,inhibition,[5],inactive
same,IC50,CREB-binding protein,7.1 nM
same,CLH,[6],34.8 mL/min/g
same,inhibition,[7],50%
same,EC50,A2780,678 nM
same,IC50,[1],0.49 nM
same,Activity,OVCAR-3 [8],1703.74 mm3
same,Activity,[9],Toxic
same,inhibition,[10],Dose-Dependent Effect
same,EC50,OVCAR-3 [11],153 nM
same,Activity,SK-OV-3,Active
same,Activity,TOV21G,Active
same,inhibition,[12],Dose-Dependent Effect
same,IC50,[13],0.51 nM
same,t1/2,[14],1.4 h
same,Activity,[15],Toxic
same,Cmax,[16],20.3 ng/mL
same,AUClast,[17],480 ng·h/mL
same,Activity,HEK293,Non-Toxic
same,Activity,OVCAR-3 [18],Active
same,CLH,[19],66.5 mL/min/g
CNC(=O)Nc1ccc2c(c1)COC[C@@]21OC(=O)N(CC(=O)N2Cc3cc(F)ccc3OC[C@H]2C2CC2)C1=O,IC50,CREB-binding protein,51 nM
same,IC50,[1],12 nM
CNC(=O)Nc1ccc2c(c1)CCC[C@@]21OC(=O)N(CC(=O)N2Cc3ccc(F)cc3CC[C@H]2C2CC2)C1=O,IC50,CREB-binding protein,14 nM
same,IC50,[1],2.2 nM
CNC(=O)Nc1cc2c(cc1F)[C@@]1(CC2)OC(=O)N(CC(=O)N2Cc3ccc(F)cc3CC[C@H]2C2CC2)C1=O,CLH,[2],106 mL/min/g
same,IC50,CREB-binding protein,8.2 nM
same,CLH,[6],161 mL/min/g
same,EC50,A2780,4470 nM
same,IC50,[1],1.7 nM
same,EC50,OVCAR-3 [11],4300 nM
same,CLH,[19],94.4 mL/min/g
CNC(=O)Nc1ccc2c(c1)CC[C@@]21OC(=O)N(CC(=O)N2Cc3sccc3OC[C@H]2C2CC2)C1=O,IC50,CREB-binding protein,12 nM
same,IC50,[1],4 nM
CNC(=O)Nc1ccc2c(c1)CCC[C@@]21OC(=O)N(CC(=O)N2Cc3cc(F)ccc3OC[C@H]2C2CC2)C1=O,IC50,CREB-binding protein,69 nM
same,IC50,[1],11 nM
CNC(=O)Nc1ccc2c(c1)CC[C@@]21OC(=O)N(CC(=O)N2Cc3cc(F)c(F)cc3CC[C@H]2C2CC2)C1=O,IC50,CREB-binding protein,7 nM
same,EC50,A2780,974 nM
same,IC50,[1],0.56 nM
same,EC50,OVCAR-3 [11],164 nM
CNC(=O)Nc1ccc2c(c1)CC[C@@]21OC(=O)N(CC(=O)N(Cc2ccc(F)cc2)[C@@H](C)C(F)(F)F)C1=O [A-485],EC50,OVCAR-3 [11],5440 nM
CNC(=O)Nc1ccc2c(c1)CC[C@@]21OC(=O)N(CC(=O)N2Cc3ccc(F)cc3CC[C@H]2C2CC2)C1=O,CLH,[2],150 mL/min/g
same,IC50,CREB-binding protein,8.1 nM
same,CLH,[6],112 mL/min/g
same,EC50,A2780,471 nM
same,IC50,[1],0.95 nM
same,EC50,OVCAR-3 [11],90.4 nM
same,CLH,[19],258 mL/min/g
CNC(=O)Nc1ccc2c(c1)CC[C@@]21OC(=O)N(CC(=O)N2Cc3ccccc3CC[C@H]2C)C1=O,IC50,CREB-binding protein,28 nM
same,EC50,A2780,2710 nM
same,IC50,[1],2.5 nM
same,EC50,OVCAR-3 [11],865 nM
CNC(=O)Nc1ccc2c(c1)CC[C@@]21OC(=O)N(CC(=O)N2Cc3cccnc3CC[C@H]2C2CC2)C1=O,IC50,CREB-binding protein,44 nM
same,IC50,[1],10 nM
CNC(=O)Nc1ccc2c(c1)CC[C@@]21OC(=O)N(CC(=O)N2Cc3cnccc3CC[C@H]2C2CC2)C1=O,IC50,CREB-binding protein,41 nM
same,IC50,[1],13 nM
CNC(=O)Nc1ccc2c(c1)CC[C@@]21OC(=O)N(CC(=O)N2Cc3sc(C)c(C)c3OC[C@H]2C(F)(F)F)C1=O,IC50,CREB-binding protein,680 nM
same,IC50,[1],430 nM

# — ChEMBL document CHEMBL5032535, “Design, synthesis and biological evaluation of a novel spiro oxazolidinedione as potent p300/CBP HAT inhibitor for the treatment of ovarian cancer” (Bioorg Med Chem, 2021)
